The values below come from US6858714B2, “Cyclic GMP phosphodiesterase” (Incyte Corporation, priority 1997, dated 2005).

Assay [1] concerns the target T1, PDE9A (Homo sapiens, UniProt O76083).
T1 construct: A 1.8 kb region of PDE9A encoding the full length protein (nucleotides 61-1842) was amplified and cloned; made in house; host or cells: Sf9 insect cells (baculovirus, pFASTBAC)
In words: Effect of known PDE inhibitors on PDE9A activity (hydrolysis of 3H-cGMP). The format is biochemical. To be noted: cGMP as substrate, FIG. 5; for inhibition of PDE9A activity: up to 100 μM of inhibitor. Here is the method:
A 1.8 kb region of PDE9A encoding the full length of the protein was cloned into the baculovirus transfer vector pFASTBAC, expressed in sf9 cells, and a cell lysate prepared from these cells for enzyme assays. […] PDE9A was not inhibited by up to 100 μM of rolipram (inhibitor of PDE4), dipyridamole (inhibitor of PDE2, 4, 5, and 6), SKF94120 (inhibitor of PDE3), vinpocetine (inhibitor of PDE1), or IBMX (non-specific PDE inhibitor). […] Of particular note is the expression of PDE9A in Crohn's disease.
PDE9A to be used for assay was prepared from transfected Sf9 cells. Cells were harvested by centrifugation, resuspended in homogenization buffer (20 mM Tris-HCl, 2 mM benzamidine, 1 mM EDTA, 0.25 M sucrose, 100 uM PMSF, pH 7.5 ) at 1×10^7 cells/ml, and disrupted using a Branson sonicating probe (3×10 second pulses). Cellular debris was removed by centrifugation at 14,000×g for 10 minutes. The supernatant was stored at −70° C.
PDE activity was assayed by measuring the conversion of ^3H-cGMP to ^3H-guanosine in the presence of PDE9A and 5′ nucleotidase. A one-step assay was run using a 100 uL assay containing 50 mM Tris-HCl pH 7.5, 10 mM MgCl^2, 0.1 unit 5′ nucleotidase (from Crotalus atrox venom), and 0.0064-2.0 uM ^3H-cGMP. The reaction was started by the addition of 25 μl of diluted enzyme supernatant. Reactions were run directly in mini Poly-Q scintillation vials (Beckman Instruments Inc., Fullerton Calif.). Assays were incubated at 37° C. for a time period that would yield less than 15% cGMP hydrolysis in order to avoid non-linearity associated with product inhibition. The reaction was stopped by the addition of 1 ml of Dowex AG1x8 (Cl form) resin (1:3 slurry). Three ml of scintillation fluid were added, and the vials were mixed. The resin in the vials was allowed to settle for 1 hr before counting. Soluble radioactivity associated with ^3H-guanosine was quantitated using a Beta scintillation counter. The amount of radioactivity recovered is proportional to the activity of PDE9A in the reaction.

Assay [2] has as its target T1, PDE9A. In words: Kinetics of enzyme activity of recombinant PDE9A (Lineweaver-Burke analysis). The format is biochemical. The conditions noted are these: FIG. 3, read-out: Km of PDE9A for cGMP as substrate.

T1 sequence (O76083 whole entry): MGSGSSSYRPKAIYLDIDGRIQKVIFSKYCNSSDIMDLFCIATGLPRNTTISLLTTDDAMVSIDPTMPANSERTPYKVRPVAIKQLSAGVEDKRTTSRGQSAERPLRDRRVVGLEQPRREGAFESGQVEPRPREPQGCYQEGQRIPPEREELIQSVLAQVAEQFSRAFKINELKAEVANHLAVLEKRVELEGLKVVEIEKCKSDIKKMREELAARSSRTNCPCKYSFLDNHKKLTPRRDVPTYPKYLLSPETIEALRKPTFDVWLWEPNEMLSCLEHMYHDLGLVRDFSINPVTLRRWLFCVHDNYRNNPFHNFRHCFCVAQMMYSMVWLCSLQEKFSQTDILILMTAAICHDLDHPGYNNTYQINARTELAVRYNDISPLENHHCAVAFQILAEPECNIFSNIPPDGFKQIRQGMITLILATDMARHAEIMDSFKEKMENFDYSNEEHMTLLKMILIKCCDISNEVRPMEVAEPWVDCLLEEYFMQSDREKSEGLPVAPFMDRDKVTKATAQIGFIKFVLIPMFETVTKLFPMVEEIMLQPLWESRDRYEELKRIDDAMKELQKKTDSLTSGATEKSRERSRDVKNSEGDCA

Consider `CC(C)Cn1c(=O)n(C)c(=O)c2[nH]cnc21` [IBMX], for which, at PDE9A [1], the “inhibition of PDE9A activity” value is listed as “not inhibited”. Same read-out and setting: the result for `CC(=O)Nc1ccc(-c2c[nH]c(=O)cn2)cc1` [SKF94120] reads “not inhibited”. The term Km denotes the substrate concentration at which the rate is half of its maximum. As to `Nc1nc2c(ncn2[C@@H]2O[C@@H]3COP(=O)(O)O[C@H]3[C@H]2O)c(=O)[nH]1` [cGMP], the Km on PDE9A [2] turned out to be 0.17 µM.

For the compound `OCCN(CCO)c1nc(N2CCCCC2)c2nc(N(CCO)CCO)nc(N3CCCCC3)c2n1` [dipyridamole], at PDE9A [1], the “inhibition of PDE9A activity” value was “not inhibited”. On the same count and under the same terms, the value for `COc1ccc(C2CNC(=O)C2)cc1OC1CCCC1` (stereo not shown) [rolipram] was “not inhibited”; that for `CCOC(=O)C1=C[C@]2(CC)CCCN3CCc4c(n1c1ccccc41)[C@@H]32` [vinpocetine] was “not inhibited”.

One may read the IC50 as the concentration needed to halve the response being measured. Take `CCCOc1ccccc1-c1nc2nn[nH]c2c(=O)[nH]1` [zaprinast]: the IC50 on PDE9A [1] (recombinant PDE9A from Sf9 cell lysate, read-out: IC50 for inhibition of PDE9A) is 35 µM.
